Measurements from ChEMBL document CHEMBL1130465, “Peptidic prodrugs of novel aminomethyl-THF 1-methylcarbapenems” (1997).
Converted amounts (≈) assume the structure as drawn.

What was measured:
Type in all cases: functional
[1] = tested on: Acinetobacter calcoaceticus; experiment: In vitro antimicrobial activity against Acinetobacter calcoaceticus GC 756 strain; conditions: Acinetobacter calcoaceticus; read-out: MIC
Citrobacter freundii = experiment: In vitro antimicrobial activity against Citrobacter freundii GC 2211 strain; conditions: Citrobacter freundii; read-out: MIC
Enterococcus faecium = experiment: In vitro antimicrobial activity against Enterococcus faecium GC 1182 strain; conditions: Enterococcus faecium; read-out: MIC
Enterococcus faecalis = experiment: In vitro antimicrobial activity against Enterococcus faecalis GC 842 strain; conditions: Enterococcus faecalis; read-out: MIC
Escherichia coli [2] = experiment: In vitro antimicrobial activity against Escherichia coli ATCC 25922 strain
Escherichia coli [3] = experiment: In vitro antimicrobial activity against Escherichia coli GC 1792 strain; conditions: Escherichia coli; read-out: MIC
Escherichia coli [4] = experiment: In vitro antimicrobial activity against Escherichia coli GC 2205 strain
Enterobacter cloacae = experiment: In vitro antimicrobial activity against Enterobacter cloacae GC 2209 strain
Mus musculus [5] = experiment: Tested for oral activity against Staphylococcus aureus smith infection in mice after single oral dose(SOD); conditions: Mus musculus, po; read-out: ED50
Morganella morganii = experiment: In vitro antimicrobial activity against Morganella morganii GC 2213 strain; conditions: Morganella morganii; read-out: MIC
Pseudomonas aeruginosa [6] = experiment: In vitro antimicrobial activity against Pseudomonas aeruginosa ATCC 27853 strain; conditions: Pseudomonas aeruginosa, ATCC 27853; read-out: MIC
Pseudomonas aeruginosa [7] = experiment: In vitro antimicrobial activity against Pseudomonas aeruginosa GC 1544 strain; conditions: Pseudomonas aeruginosa; read-out: MIC
Staphylococcus aureus [8] = experiment: In vitro antimicrobial activity against Staphylococcus aureus GC 2220 strain; conditions: Staphylococcus aureus; read-out: MIC
Staphylococcus aureus [9] = experiment: In vitro antimicrobial activity against Staphylococcus aureus ATCC 29213 strain
[10] = tested on: Stenotrophomonas maltophilia; experiment: In vitro antimicrobial activity against Xanthomonas maltophilia GC 562 strain
[11] = Ratio of ED50 of single oral dose to ED50 of single subcutaneous dose against Staphylococcus aureus smith infection in mice
Mus musculus [12] = experiment: Tested for oral activity against Staphylococcus aureus smith infection in mice after single subcutaneous dose(SSC); conditions: Mus musculus; read-out: ED50
Mus musculus [13] = organism: Mus musculus; experiment: animal or person; conditions: Mus musculus, po; read-out: ED50
Description: Tested for oral activity against Escherichia coli #311 infection in mice after single oral dose(SOD)

Mus musculus [14] = organism: Mus musculus; experiment: animal or person; conditions: Mus musculus; read-out: ED50
Description: Tested for oral activity against Escherichia coli #311 infection in mice after single subcutaneous dose(SSC)

Mus musculus [15] = experiment: Tested for oral activity against Staphylococcus aureus smith infection in mice after single subcutaneous dose(SSC); 0.42-0.83
[16] = Ratio of ED50 of single oral dose to ED50 of single subcutaneous dose against Staphylococcus aureus smith infection in mice; 16-8
Mus musculus [17] = experiment: Tested for oral activity against Staphylococcus aureus smith infection in mice after single oral dose(SOD); 0.83-1.7
Mus musculus [18] = experiment: Tested for oral activity against Staphylococcus aureus smith infection in mice after single subcutaneous dose(SSC); 0.1-0.21
Mus musculus [19] = experiment: Tested for oral activity against Staphylococcus aureus smith infection in mice after single subcutaneous dose(SSC); 0.06-0.21

SMILES	MIC [1] [µg/mL]	MIC (Citrobacter freundii) [µg/mL]	MIC (Enterococcus faecium) [µg/mL]	MIC (Enterococcus faecalis) [µg/mL]	MIC (Escherichia coli [2]) [µg/mL]	MIC (Escherichia coli [3]) [µg/mL]	MIC (Escherichia coli [4]) [µg/mL]	MIC (Enterobacter cloacae) [µg/mL]	ED50 (Mus musculus [5]) [mg/kg]	MIC (Morganella morganii) [µg/mL]	MIC (Pseudomonas aeruginosa [6]) [µg/mL]	MIC (Pseudomonas aeruginosa [7]) [µg/mL]	MIC (Staphylococcus aureus [8]) [µg/mL]	MIC (Staphylococcus aureus [9]) [µg/mL]	MIC [10] [µg/mL]	Ratio [11]	ED50 (Mus musculus [12]) [mg/kg]	ED50 (Mus musculus [13]) [mg/kg]	ED50 (Mus musculus [14]) [mg/kg]	further results
C[C@@H](N)C(=O)NC[C@H]1COC[C@H]1SC1=C(C(=O)O)N2C(=O)[C@H]([C@@H](C)O)C2[C@H]1C (some centres undefined)	8 (≈ 19.3 µM)	2 (≈ 4.84 µM)	128 (≈ 310 µM)	2 (≈ 4.84 µM)	< 0.06	< 0.06	< 0.06	0.25 (≈ 0.605 µM)	4	1 (≈ 2.42 µM)	8 (≈ 19.3 µM)	32 (≈ 77.4 µM)	32 (≈ 77.4 µM)	0.5 (≈ 1.21 µM)	> 128	36	0.11	–	–	–
C[C@H]1C(S[C@@H]2CCO[C@@H]2CNC(=O)[C@H](N)Cc2ccccc2)=C(C(=O)O)N2C(=O)[C@H]([C@@H](C)O)C12 (some centres undefined)	64 (≈ 131 µM)	8 (≈ 16.3 µM)	128 (≈ 261 µM)	1 (≈ 2.04 µM)	0.25 (≈ 0.511 µM)	0.5 (≈ 1.02 µM)	0.03 (≈ 0.0613 µM)	4 (≈ 8.17 µM)	0.28	4 (≈ 8.17 µM)	64 (≈ 131 µM)	128 (≈ 261 µM)	4 (≈ 8.17 µM)	0.25 (≈ 0.511 µM)	> 128	4.7	0.06	1.2	0.48	–
C[C@@H](N)C(=O)NC[C@H]1OCC[C@H]1SC1=C(C(=O)O)N2C(=O)[C@H]([C@@H](C)O)C2[C@H]1C (some centres undefined)	16 (≈ 38.7 µM)	1 (≈ 2.42 µM)	> 128	4 (≈ 9.67 µM)	≤ 0.06	≤ 0.06	≤ 0.06	0.25 (≈ 0.605 µM)	0.09	1 (≈ 2.42 µM)	32 (≈ 77.4 µM)	64 (≈ 155 µM)	8 (≈ 19.3 µM)	0.12 (≈ 0.29 µM)	> 128	2.2	0.04	0.55	0.28	–
C[C@H](N)C(=O)NC[C@H]1OCC[C@H]1SC1=C(C(=O)O)N2C(=O)[C@H]([C@@H](C)O)C2[C@H]1C (some centres undefined)	8 (≈ 19.3 µM)	1 (≈ 2.42 µM)	> 128	2 (≈ 4.84 µM)	< 0.06	0.12 (≈ 0.29 µM)	< 0.06	0.25 (≈ 0.605 µM)	6.6	1 (≈ 2.42 µM)	64 (≈ 155 µM)	64 (≈ 155 µM)	8 (≈ 19.3 µM)	< 0.06	> 128	–	–	–	–	ED50 (Mus musculus [15]): 0.42 mg/kg; Ratio [16]: >16
CC(C)[C@@H](N)C(=O)NC[C@H]1OCC[C@H]1SC1=C(C(=O)O)N2C(=O)[C@H]([C@@H](C)O)C2[C@H]1C (some centres undefined)	16 (≈ 36.2 µM)	1 (≈ 2.26 µM)	> 128	2 (≈ 4.53 µM)	≤ 0.06	0.12 (≈ 0.272 µM)	≤ 0.06	0.5 (≈ 1.13 µM)	0.1	1 (≈ 2.26 µM)	32 (≈ 72.5 µM)	128 (≈ 290 µM)	8 (≈ 18.1 µM)	0.25 (≈ 0.566 µM)	> 128	1.4	0.07	0.31	0.29	–
C[C@@H](N)C(=O)NC[C@@H]1C[C@H](SC2=C(C(=O)O)N3C(=O)[C@H]([C@@H](C)O)C3[C@H]2C)CO1 (some centres undefined)	8 (≈ 19.3 µM)	1 (≈ 2.42 µM)	> 128	4 (≈ 9.67 µM)	< 0.06	0.06 (≈ 0.145 µM)	0.12 (≈ 0.29 µM)	0.25 (≈ 0.605 µM)	–	1 (≈ 2.42 µM)	32 (≈ 77.4 µM)	64 (≈ 155 µM)	8 (≈ 19.3 µM)	< 0.06	> 128	8.3	–	–	–	ED50 (Mus musculus [17]): 0.83 mg/kg; ED50 (Mus musculus [18]): 0.1 mg/kg
C[C@@H](O)[C@H]1C(=O)N2C(C(=O)O)=C(SCCNC=N)C[C@H]12.O [IMIPENEM]	0.25	0.25	64	1	0.12	< 0.06	0.12	< 0.06	–	1	1	16	1	< 0.06	> 128	–	–	–	–	–
C[C@@H](N)C(=O)NC[C@@H]1C[C@@H](SC2=C(C(=O)O)N3C(=O)[C@H]([C@@H](C)O)C3[C@H]2C)CO1 (some centres undefined)	8 (≈ 19.3 µM)	0.5 (≈ 1.21 µM)	> 128	4 (≈ 9.67 µM)	< 0.06	0.12 (≈ 0.29 µM)	0.12 (≈ 0.29 µM)	0.12 (≈ 0.29 µM)	–	1 (≈ 2.42 µM)	32 (≈ 77.4 µM)	64 (≈ 155 µM)	4 (≈ 9.67 µM)	< 0.06	> 128	14	–	–	–	ED50 (Mus musculus [17]): 0.83 mg/kg; ED50 (Mus musculus [19]): 0.06 mg/kg
